One series concerns the target T1, androgen receptor (AR) (Homo sapiens, UniProt P10275).
T1 sequence (P10275 1-920): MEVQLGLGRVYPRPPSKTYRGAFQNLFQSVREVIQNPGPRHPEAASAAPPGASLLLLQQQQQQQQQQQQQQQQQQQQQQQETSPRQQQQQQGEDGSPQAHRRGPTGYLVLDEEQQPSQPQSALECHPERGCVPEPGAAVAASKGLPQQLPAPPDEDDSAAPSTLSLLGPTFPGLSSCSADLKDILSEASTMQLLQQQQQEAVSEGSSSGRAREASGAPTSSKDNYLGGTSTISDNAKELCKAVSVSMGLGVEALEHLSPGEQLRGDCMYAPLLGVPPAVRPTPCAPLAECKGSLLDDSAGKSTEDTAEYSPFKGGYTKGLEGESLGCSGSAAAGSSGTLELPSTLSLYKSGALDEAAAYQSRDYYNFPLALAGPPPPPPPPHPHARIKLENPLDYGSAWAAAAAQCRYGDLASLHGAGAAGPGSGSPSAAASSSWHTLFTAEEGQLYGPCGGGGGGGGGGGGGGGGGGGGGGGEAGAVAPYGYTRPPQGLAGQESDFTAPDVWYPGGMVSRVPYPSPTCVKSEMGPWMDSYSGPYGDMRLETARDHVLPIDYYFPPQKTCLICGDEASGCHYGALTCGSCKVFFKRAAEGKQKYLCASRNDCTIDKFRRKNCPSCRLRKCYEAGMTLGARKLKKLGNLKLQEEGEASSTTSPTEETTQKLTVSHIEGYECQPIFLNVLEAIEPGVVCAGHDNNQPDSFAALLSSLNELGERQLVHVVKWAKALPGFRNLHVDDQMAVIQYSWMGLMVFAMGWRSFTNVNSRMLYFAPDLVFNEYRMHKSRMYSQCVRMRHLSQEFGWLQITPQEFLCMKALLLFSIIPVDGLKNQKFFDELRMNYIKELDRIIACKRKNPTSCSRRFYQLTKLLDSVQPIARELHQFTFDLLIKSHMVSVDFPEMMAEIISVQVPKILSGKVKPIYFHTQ
Put plainly: Agonistic effect of test compounds on androgen receptor (AR), LiveBLAzer FRET reporter cell assay. The series is classed as cell-based. As for the experimental part:
Experimental Embodiment 1: Agonistic Effect of Test Compounds on Androgen Receptor (AR)
1. Preparation of Compounds, Placing in Plates:
1.1 Preparation of compounds: the test compounds were diluted to the working concentration, and each compound was diluted by 4 times with Echo for 10 concentration gradients, and the compounds were added to a 384-well cell plate according to the microplate layout diagram, with 200 nL per well;
1.2 AR cell assay medium: 87% Opti-MEM (reduced serum medium), 10% Dialyzed FBS (dialyzed fetal bovine serum), 1% NEAA (non-essential amino acids), 1% sodium pyruvate and 1% penicillin-streptomycin;
1.3 culture medium, trypsin and Dulbecco's phosphate buffer were preheated in a 37° C. water bath;
1.4 the original medium in the cell culture flask was removed, and the cells were washed once with 6 mL of Dulbecco's phosphate buffer;
1.5 3.5 mL of trypsin was added to the cell culture flask, and the flask was gently shaken to make the trypsin fully contact with the cells, the trypsin was removed; after aspirating the trypsin, the culture flask was placed in a 37° C. incubator containing 5% CO2 for about 1 minute;
1.6 the cells were resuspended with 10 mL of cell detection medium, and about 0.8 mL of cell suspension was taken out for counting (ViCell XR)
1.7 the cell suspension was diluted with culture medium to 2.5×10^5 cells per mL;
1.8 40 !IL of cell suspension was added to each well of the cell plate, and 40 μL of cell culture medium was added to the other wells, and the cells were incubated in a 37° C. incubator containing 5% CO2 for 16 hours.
2. Reading the Board and Analyzing Data:
2.1 Preparation of solution A: 182 μL of DMSO was added to 200 μg of LiveBLAzer™-FRET B/G/g substrate (CCF4-AM). The solution A was packaged and stored in a refrigerator at −20° C.;
2.2 preparation of 6×substrate buffer: 15 μL of solution A was added to 150 μL of solution B, and the mixture was vortexed evenly, then 2335 μL of solution C was added to the above solution and vortexed evenly;
2.3 the cell culture plate was taken out, and 8μL of 6×substrate buffer was added to each well, shaken for 1 minute, and centrifuged at 1000 rpm for 10 seconds; after sealing the membrane, the cells were incubated at 23° C. for 2 hours, and the plate was read with Envision, and the curve EC50 value was fitted by Prism software.

The subject of series [1] is muscle growth model of female rats. Put plainly: In vivo pharmacodynamic study for muscle growth in female rats. The note with it: female SD rats, 10 mg/kg oral, QD × 37 days. The text has this: Experimental Embodiment 3: In Vivo Pharmacodynamic Study of the Compounds of the Present Disclosure for Muscle Growth in Female Rats
From 16 female SD rats, 12 were selected and randomly divided into 2 groups of 6 animals each according to their body weight, with 2 spare animals in each group; the vehicle was (5% Tween 80+90% polyethylene glycol 400+5% polyvinylpyrrolidone K30): 1% carboxymethyl cellulose=1:9 (v/v).
The rats were acclimatized in the ecological feeding box for 1 week at approximately 2 months of age, and after the acclimatization period, the rats were divided equally into 2 groups (n=6) according to body weight, and the vehicle and compound 3A were administered by gavage, once a day, for 5 weeks, at which time the animals were euthanized, and the tissues (muscle tissue: levator anal muscle, vaginal smooth muscle and gastrocnemius; gonad-related tissue: clitoris) were collected by necropsy and weighed.

Broadly, the EC50 is the concentration at which the effect is half-maximal. Lower therefore signals an effect from little substance. For the compound `N#Cc1ccc(N2CC3CC3C2C(O)C(F)(F)F)cc1Cl` (single isomer, unassigned) [Compound 3A], the 50% effective concentration (EC50) at androgen receptor (AR) was 0.81 nM. For the same compound, in series [1], the “abnormalities / tolerability of the animals” value is on record as “no significant abnormalities”, the “increase of animal body weight compared with the vehicle group” value is 20%, the “increase of animal muscle weight compared with the vehicle group” value turned out to be 34% and the “increase of clitoral weight compared with the vehicle group (gonad-related tissue)” value worked out at 19%.
